# Experimental data published in US4766046A, “Stabilized liposome/amphotericin composition and method” (priority 1985, dated 1988).
# Entries after “also recorded” stand apart in the source; their conditions may differ.
# Experiments:
# [1] = Description: The MLVs which formed were diluted, concentrated by ultrafiltration, and extruded successively through 0.4 and 0.2 micron polycarbonate membranes, as in Example II.
# Liposomes were prepared from mixture #1 lipids and 3.5 mole percent AMB, with hydration in either PBS, or in a Tris--HCl buffer containing 5% w/v of one of the following sugars: glucose, mannitol, trehalose, sucrose, lactose, or maltodextrin. The MLVs formed on hydration with the selected aqueous medium were extruded successively through 0.4 and 0.2 micron polycarbonate membranes, diluted with the selected medium, and concentrated to the original volume, according to Example I. The liposome suspensions were frozen against a dry ice/isopropanol mixture and lyophilized at a pressure of about 15 mTorr. The lyophilized material was stored under nitrogen at refrigerator temperature until used, typically at least about 12 hours.
# Following storage, each of the lyophilized liposome preparations was resuspended to its prelyophilization volume by addition of distilled water. The samples were agitated briefly to facilitate resuspension, and resuspended samples were examined for liposome size distribution, as above.
# [2] = cited from earlier work
# [3] = tested on: fungal infections; conditions: cited from earlier work
# [4] = free form; cited from earlier work
compound,measurement,setting,value
O=C[C@H](O)[C@@H](O)[C@H](O)[C@H](O)CO [glucose],size stabilization on dehydration and rehydration,[1],good size stabilization
CC(C)[C@@H](C)/C=C/[C@@H](C)[C@H]1CC[C@H]2C3=CC=C4C[C@@H](O)CC[C@]4(C)[C@H]3CC[C@]12C [Ergosterol],protective effect in liposomes,[2]; compared with cholesterol (reference 12),greater protective effect than cholesterol in liposomes
"C[C@@H]1[C@H](O)[C@@H](C)/C=C/C=C/C=C/C=C/C=C/C=C/C=C/[C@H](O[C@@H]2O[C@H](C)[C@@H](O)[C@H](N)[C@@H]2O)C[C@@H]2O[C@](O)(C[C@@H](O)C[C@@H](O)[C@H](O)CC[C@@H](O)C[C@@H](O)CC(=O)O[C@H]1C)C[C@H](O)[C@H]2C(=O)O [AMB, Amphotericin B]","antifungal activity, in words",[3],effective antifungal agent
same,LD50,[2]; earlier studies (references 2-12),2 to 3 mg/kg
same,side effects of free AMB,[4],"side effects resulting from red blood cell disruption are observed initially, followed by more serious cardiotoxicity effects; also recorded: Renal toxicity"
OC[C@H]1O[C@@](CO)(O[C@H]2O[C@H](CO)[C@@H](O)[C@H](O)[C@H]2O)[C@@H](O)[C@@H]1O [sucrose],size stabilization on dehydration and rehydration,[1],good size stabilization
